Test results reported in ChEMBL document CHEMBL1201862, “PubChem BioAssay data set” (2004).
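Assay format: 96-well plates, 48-hour exposure. At the GI50, growth is halved.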 Activity calls are given as the source filed them. Cut-off read from the data, not from the text of the source: active = GI50 up to about 1.1 µM and inactive = higher.

Assays:
Experiment in all cases: growth of human tumour cells (NCI), 48 h
A549 = system: A549
HL-60 = system: HL-60
K562 = system: K562
LOX IMVI = system: LOX IMVI
Malme-3M = system: Malme-3M
NCI-H226 = system: NCI-H226
NCI-H522 = system: NCI-H522
OVCAR-3 = system: OVCAR-3
OVCAR-5 = system: OVCAR-5
OVCAR-8 = system: OVCAR-8
SF-295 = system: SF-295
SK-MEL-28 = system: SK-MEL-28
SK-MEL-2 = system: SK-MEL-2
SK-MEL-5 = system: SK-MEL-5
SW-620 = system: SW-620
UO-31 = system: UO-31
DU-145 = system: DU-145
NCI/ADR-RES = system: NCI/ADR-RES
MCF7 = system: MCF7

Row | SMILES | GI50 (A549) | GI50 (HL-60) | GI50 (K562) | GI50 (LOX IMVI) | GI50 (Malme-3M) | GI50 (NCI-H226) | GI50 (NCI-H522) | GI50 (OVCAR-3) | GI50 (OVCAR-5) | GI50 (OVCAR-8) | GI50 (SF-295) | GI50 (SK-MEL-28) | GI50 (SK-MEL-2) | GI50 (SK-MEL-5) | GI50 (SW-620) | GI50 (UO-31) | GI50 (DU-145) | GI50 (NCI/ADR-RES) | GI50 (MCF7)
1 | CCOC(=O)CNC(=O)c1nc[nH]c1/N=N/N(C)C | > 100 µM (inactive) | > 100 µM (inactive) | > 100 µM (inactive) | > 100 µM (inactive) | > 100 µM (inactive) | > 100 µM (inactive) | > 100 µM (inactive) | > 100 µM (inactive) | > 100 µM (inactive) | > 100 µM (inactive) | > 100 µM (inactive) | > 100 µM (inactive) | > 100 µM (inactive) | > 100 µM (inactive) | > 100 µM (inactive) | > 100 µM (inactive) | – | – | –
2 | CC(=O)/C(=C/n1c(=S)[nH]c2ccccc21)C(=O)Nc1ccccc1C | > 100 µM (inactive) | > 100 µM (inactive) | – | > 100 µM (inactive) | – | > 100 µM (inactive) | – | > 100 µM (inactive) | > 100 µM (inactive) | > 100 µM (inactive) | > 100 µM (inactive) | > 100 µM (inactive) | > 100 µM (inactive) | > 100 µM (inactive) | > 100 µM (inactive) | > 100 µM (inactive) | > 100 µM (inactive) | > 100 µM (inactive) | –
3 | CC1(C)OC2COC3(CNO)OC(C)(C)OC3C2O1 (centres undefined) | > 100 µM (inactive) | 16.6 µM (inactive) | > 100 µM (inactive) | > 100 µM (inactive) | > 100 µM (inactive) | > 100 µM (inactive) | – | > 100 µM (inactive) | > 100 µM (inactive) | > 100 µM (inactive) | > 100 µM (inactive) | > 100 µM (inactive) | > 100 µM (inactive) | > 100 µM (inactive) | > 100 µM (inactive) | > 100 µM (inactive) | – | – | –
4 | CCOP(=O)(OCC)[C@]12C[C@@H](C)C=C[C@H]1COC2=O | > 100 µM (inactive) | – | > 100 µM (inactive) | > 100 µM (inactive) | > 100 µM (inactive) | – | > 100 µM (inactive) | > 100 µM (inactive) | > 100 µM (inactive) | > 100 µM (inactive) | > 100 µM (inactive) | > 100 µM (inactive) | > 100 µM (inactive) | > 100 µM (inactive) | > 100 µM (inactive) | > 100 µM (inactive) | > 100 µM (inactive) | – | > 100 µM (inactive)
5 | Cc1nc(C(N)=S)sc1C(=O)CC(=O)C(=O)Nc1ccc(Br)cc1 | > 100 µM (inactive) | > 100 µM (inactive) | > 100 µM (inactive) | > 100 µM (inactive) | > 100 µM (inactive) | > 100 µM (inactive) | 66.4 µM (inactive) | > 100 µM (inactive) | > 100 µM (inactive) | > 100 µM (inactive) | > 100 µM (inactive) | > 100 µM (inactive) | > 100 µM (inactive) | > 100 µM (inactive) | > 100 µM (inactive) | > 100 µM (inactive) | – | > 100 µM (inactive) | > 100 µM (inactive)
6 | COc1ccc2c(c1)C/C(=C\c1cccc3ccccc13)C2=O | 6.89 µM (inactive) | 4.95 µM (inactive) | 2.36 µM (inactive) | 5.07 µM (inactive) | – | 10.5 µM (inactive) | – | 13.4 µM (inactive) | 94 µM (inactive) | 21.7 µM (inactive) | – | 3.93 µM (inactive) | – | 4.05 µM (inactive) | 3.98 µM (inactive) | 44.5 µM (inactive) | – | 4.66 µM (inactive) | 5.19 µM (inactive)
7 | CC(=O)Nc1ccc(/C=c2\sc3nnc(CCC(=O)Nc4ccccc4Cl)n3c2=O)cc1 | 30.4 µM (inactive) | 19.8 µM (inactive) | 24.2 µM (inactive) | 17.2 µM (inactive) | 38.8 µM (inactive) | 23.4 µM (inactive) | 18.7 µM (inactive) | 21.6 µM (inactive) | > 100 µM (inactive) | > 10 µM (inactive) | 18.1 µM (inactive) | 23 µM (inactive) | 31.9 µM (inactive) | 25 µM (inactive) | 27 µM (inactive) | > 100 µM (inactive) | – | – | –
8 | Clc1ccc(-c2cn3c(nc4ccccc43)c(/C=C/c3cccs3)n2)cc1 | > 100 µM (inactive) | > 100 µM (inactive) | 49.1 µM (inactive) | > 100 µM (inactive) | > 100 µM (inactive) | > 100 µM (inactive) | – | > 100 µM (inactive) | > 100 µM (inactive) | – | – | > 100 µM (inactive) | 41.6 µM (inactive) | > 100 µM (inactive) | > 100 µM (inactive) | > 100 µM (inactive) | > 100 µM (inactive) | > 100 µM (inactive) | 7.08 µM (inactive)
9 | CN(C)c1ccc(C2ON=C(c3ccccc3)N2C23CC4CC(CC(C4)C2)C3)cc1 (centres undefined) | > 10 µM (inactive) | 9.55 µM (inactive) | 9.12 µM (inactive) | > 10 µM (inactive) | > 10 µM (inactive) | > 10 µM (inactive) | > 10 µM (inactive) | > 10 µM (inactive) | > 10 µM (inactive) | > 10 µM (inactive) | > 10 µM (inactive) | > 10 µM (inactive) | > 10 µM (inactive) | > 10 µM (inactive) | > 10 µM (inactive) | – | > 10 µM (inactive) | > 10 µM (inactive) | –
10 | Cc1cc2nc(N3C(=O)/C(=C/Cc4ccco4)N=C3c3ccccc3)sc2cc1C | 36.9 µM (inactive) | 23 µM (inactive) | 22.8 µM (inactive) | 25.9 µM (inactive) | – | – | – | 22.3 µM (inactive) | 24.9 µM (inactive) | 31.6 µM (inactive) | 43.8 µM (inactive) | 64.6 µM (inactive) | 26.8 µM (inactive) | 22.3 µM (inactive) | 31.3 µM (inactive) | 26.6 µM (inactive) | 61.9 µM (inactive) | 27.6 µM (inactive) | 13.4 µM (inactive)
11 | Cn1c(=O)c2c(nc3sc4nc5ccccc5nc4n32)n(C)c1=O | > 100 µM (inactive) | > 100 µM (inactive) | > 100 µM (inactive) | 92.3 µM (inactive) | > 100 µM (inactive) | > 100 µM (inactive) | – | > 100 µM (inactive) | > 100 µM (inactive) | > 100 µM (inactive) | 49.5 µM (inactive) | – | – | 32.7 µM (inactive) | – | > 100 µM (inactive) | > 100 µM (inactive) | > 100 µM (inactive) | > 100 µM (inactive)
12 | Cc1cccc2c3ccc4c(c3n(C)c12)C(=O)C=CC4=O | > 100 µM (inactive) | 17.1 µM (inactive) | > 100 µM (inactive) | – | > 100 µM (inactive) | > 100 µM (inactive) | > 100 µM (inactive) | > 100 µM (inactive) | – | 89.1 µM (inactive) | > 100 µM (inactive) | > 100 µM (inactive) | > 100 µM (inactive) | – | > 100 µM (inactive) | 28.9 µM (inactive) | – | – | –
13 | N#Cc1nc(Cc2cccs2)oc1N | > 100 µM (inactive) | > 100 µM (inactive) | > 100 µM (inactive) | > 100 µM (inactive) | – | – | – | – | > 100 µM (inactive) | > 100 µM (inactive) | – | > 100 µM (inactive) | > 100 µM (inactive) | > 100 µM (inactive) | > 100 µM (inactive) | 27.5 µM (inactive) | > 100 µM (inactive) | – | > 100 µM (inactive)
14 | C/C(=N\Nc1nc2ccccc2n1C)c1ccncn1 | 0.128 µM (active) | < 0.01 µM (active) | < 0.0152 µM (active) | 0.0845 µM (active) | < 0.0385 µM (active) | 0.29 µM (active) | 0.0393 µM (active) | – | 1.52 µM (inactive) | < 0.0238 µM (active) | 0.476 µM (active) | 0.0378 µM (active) | 2.52 µM (inactive) | 0.102 µM (active) | < 0.018 µM (active) | 0.0391 µM (active) | – | 0.0395 µM (active) | 0.0206 µM (active)
15 | O=C1OI(C#Cc2ccccc2)c2ccccc21 | 8.65 µM (inactive) | 1.12 µM (active) | 2.15 µM (inactive) | 2.74 µM (inactive) | 1.53 µM (inactive) | 5.26 µM (inactive) | – | 2.64 µM (inactive) | 5.82 µM (inactive) | 4.39 µM (inactive) | 13.5 µM (inactive) | 5.48 µM (inactive) | 11.7 µM (inactive) | 2.19 µM (inactive) | 2.19 µM (inactive) | 4.13 µM (inactive) | 7.18 µM (inactive) | 5.98 µM (inactive) | 3.69 µM (inactive)
16 | O=C(O)CC(O)(c1ccccc1C(=O)O)c1cccc2ccccc12 (centres undefined) | > 100 µM (inactive) | > 100 µM (inactive) | > 100 µM (inactive) | > 100 µM (inactive) | > 100 µM (inactive) | > 100 µM (inactive) | > 100 µM (inactive) | > 100 µM (inactive) | > 100 µM (inactive) | > 100 µM (inactive) | > 100 µM (inactive) | > 100 µM (inactive) | > 100 µM (inactive) | > 100 µM (inactive) | > 100 µM (inactive) | > 100 µM (inactive) | – | – | –
17 | CC(C)(C)c1c(C(C)(C)C)c(=O)c1=O | > 100 µM (inactive) | > 100 µM (inactive) | > 100 µM (inactive) | > 100 µM (inactive) | > 100 µM (inactive) | > 100 µM (inactive) | – | > 100 µM (inactive) | > 100 µM (inactive) | > 100 µM (inactive) | > 100 µM (inactive) | > 100 µM (inactive) | > 100 µM (inactive) | > 100 µM (inactive) | > 100 µM (inactive) | > 100 µM (inactive) | > 100 µM (inactive) | > 100 µM (inactive) | > 100 µM (inactive)
